Columns and labels:
HPH/BT549 coculture = test: LC-MS/MS determination of 4-OH-CPA formation in HPH/BT549 coculture medium; format: cell-based, human; details: DL7076 10 μM
Protocol: During the pre-treatment time, BT549 cells were seeded at 0.8×10^5 on collagen-coated coverslips modified to have their corners bent (FIG. 40a). […] 200 μL of cell culture medium was removed from each treatment group was immediately mixed with 20 μL of semicarbazide (SCZ; 2M) to stabilize 4-OH-CPA to its derivative 4-OH-CPA-SCZ. Once removed, samples were vortexed and left at room temperature for 10 minutes. 2 μM HMP was added as an internal standard and 200 μL acetonitrile was used to precipitate protein. Mass transitions were monitored at m/z: 261-140 for CPA, m/z: 334-221 for 4-OH-CPA-SCZ, and m/z: 180-135 for HMP under the positive multiple reaction monitoring mode.

H9c2 cells [1] = test: Cell viability assay, DOX-induced toxicity in H9c2 cells; format: cell-based, rat
Protocol: H9c2 cells were seeded 0.8×10^5 in 24-well plates. Following cell attachment, a 2 h pre-treatment with vehicle control (0.1% DMSO), SFN (2.5 μM) or DL7076 (1 μM, 5 μM, or 10 μM) was done followed by doxorubicin (2.5 μM) exposure for 22 h. Co-culture cells were assembled and treated with cyclophosphamide and doxorubicin as indicated. A Cell Counting Kit-8 (Enzo) assay was carried out. Cell viability was described as a percent of vehicle control (0.1% DMSO). Cardiomyocyte, human iPSC-derived cardiomyocytes, and BT549 viability was determined with a 1 hr incubation of 6% CCK8 in WEM.

H9c2 cells [2] = test: Oxidative stress imaging (DFDA) in H9c2 cells; format: cell-based, rat; details: H9c2, DL7076 5 μM, 2-hour pretreatment and 6-hour cotreatment with DOX
Protocol: H9c2 rat cardiomyocytes seeded at 0.8×10^5 in 24-well plates. […] Cells were washed 3× with PBS. Subsequently, 0.5 mL of WEM containing 20 μM 2'-7'-dichlorofluorescein diacetate (DFDA) was added to each well. The cells were incubated at 37° C. and 5% CO2 for 30 min. The oxidation of DFDA to the fluorescent dichlorofluorescein was viewed using fluorescence microscopy (Nikon Eclipse Ti) with a FITC filter at […] and quantified using Brightspot detection for fluorescent detection of triplicate images and normalized to the vehicle control (0.1% DMSO). Cells on coverslips from co-culture experiments were fixed using 4% paraformaldehyde and permealized using Triton-X 100. A primary antibody for mouse anti-phospho-H2AX ([…]) was incubated overnight. Goat anti-mouse IgG Fluor Alexa 488 (1:200) was incubated for 2 hrs. Phosphorylation was calculated through fluorescence intensity all normalized to the vehicle control.

H9c2 cells [3] = test: Multi-organ co-culture (BT549/HPH/H9c2), H9c2 viability; format: cell-based, rat; details: DL7076 10 μM
Protocol: Additionally, HPH were cultured in collagen-coated 6-well plates and pre-treated as described in the previous co-culture system. BT549 and H9c2 cells were plated on similar modified coverslips 0.8×10^5 cells and allowed to attach for 24 hours during hepatocyte pre-treatment. […] Following pre-treatment, BT549 coverslips were inserted adjacent to H9c2 coverslips over the sandwich cultured HPH as depicted in FIG. 43a. […] Both BT549 and H9c2 cells were harvested at indicated time points and assess for viability, apoptosis, and DNA damage as detailed further. H9c2 cells were seeded 0.8×10^5 in 24-well plates. […] A Cell Counting Kit-8 (Enzo) assay was carried out. Cell viability was described as a percent of vehicle control (0.1% DMSO).

BT549 cells = test: Phosphorylated H2AX imaging, BT549 cells from multi-organ co-culture; format: cell-based; details: CPA/DOX + DL7076
Protocol: Additionally, HPH were cultured in collagen-coated 6-well plates and pre-treated as described in the previous co-culture system. BT549 and H9c2 cells were plated on similar modified coverslips 0.8×10^5 cells and allowed to attach for 24 hours during hepatocyte pre-treatment. […] Following pre-treatment, BT549 coverslips were inserted adjacent to H9c2 coverslips over the sandwich cultured HPH as depicted in FIG. 43a. […] Both BT549 and H9c2 cells were harvested at indicated time points and assess for viability, apoptosis, and DNA damage as detailed further. H9c2 rat cardiomyocytes seeded at 0.8×10^5 in 24-well plates. […] Cells were washed 3× with PBS. […] The oxidation of DFDA to the fluorescent dichlorofluorescein was viewed using fluorescence microscopy (Nikon Eclipse Ti) with a FITC filter at […] and quantified using Brightspot detection for fluorescent detection of triplicate images and normalized to the vehicle control (0.1% DMSO). […] Phosphorylation was calculated through fluorescence intensity all normalized to the vehicle control. […] The coverslips were visualized at 10× magnification using fluorescence microscopy (Nikon Eclipse Ti) and the amount of phosphorylation was quantified as mean intensity using brightspot detection of quadruplet images of the whole well and normalized to the vehicle control (0.1% DMSO).

With `O=C(NCCN=C=S)c1c(-c2ccc3ccccc3c2)nc2sccn12` [DL7076, N-(2-Isothiocyanatoethyl)-6-(naphthalen-2-yl)imidazo[2,1-b]thiazole-5-carboxamide] the “rate and extent of CPA biotransformation to 4-OH-CPA” value (HPH/BT549 coculture; coculture medium) was “increased rate and extent of CPA biotransformed”, the 4-OH-CPA formation (HPH/BT549 coculture; fixed CPA 500 μM, 2 to 24 hours) was “enhanced 4-OH-CPA formation in the coculture medium at all time points” and the “cytotoxicity without DOX” value (H9c2 cells [1]; H9c2, 1, 5, 10 μM) was “no cytotoxicity”. The “reversal of DOX-induced cardiotoxicity (viability)” value (H9c2 cells [1]; H9c2, 2 h pretreatment, 22 h cotreatment with DOX 2.5 μM) was “concentration dependent reversal in the DOX-induced cardiotoxicity”, the “ROS (fluorescence intensity) with cotreatment” value (H9c2 cells [2]) was “significantly reduced ROS” and the “H9c2 viability during CPA/DOX treatment” value (H9c2 cells [3]) was “h9c2 cardiomyocyte viability can be protected during CPA/DOX treatment”. For the same compound, the “H2AX phosphorylation (DNA damage)” value (BT549 cells) was “effectively enhanced the CPA/DOX-mediated DNA damage”.

From patent publication US20230134760A1, “CAR AND NRF2 DUAL ACTIVATOR AGENTS FOR CYCLOPHOSPHAMIDE-BASED AND DOXORUBICIN-BASED TREATMENTS OF CANCER” (priority 2020, published 2023)
